One experiment concerns the target T1, CDK9 (Homo sapiens, UniProt P50750).
T1 construct: endogenous in cells; host or cells: Kato III; CCLP1; JHH7
Description: CDK9 degradation by immunoblot (positive control). Conditions: 16 hours. The experiment is classed as cell-based. The protocol: Kato III cells were treated with 0, 0.1, 1, or 10 M of bispecific compound 6 or 0.5 M THAL-SNS-032 (a known CDK9 degrader and positive control for CDK9 degradation; available from, e.g., MedChemExpress®, Cat. No. HY-10008, Monmouth Junction, N.J.) for 16 hours. Cells were then lysed in RIPA buffer (Millipore Sigma®) containing protease/phosphatase inhibitor cocktail (Roche®). The protein concentrations were measured by bicinchoninic acid assay (BCA) analysis (Pierce™). Equal amounts of protein were resolved by 4-12% Tris-Base gels (Invitrogen™), and then transferred to the Immuno-Blot PVDF membrane (Bio-Rad®), and immunoblotted with primary antibodies against FGFR2 (cell signaling), CDK9 (cell signaling) and […] (cell signaling), and then immunoblotted with IRDye®800-labeled goat anti-rabbit IgG and IRDye®800-labeled goat anti-mouse IgG (LI-COR®) secondary antibodies. The membranes were detected on Odyssey CLx system.
CCLP1 cells were treated with 0, 0.1, 1, or 10 M of bispecific compound 6 or 0.5 μM THAL-SNS-032 for 16 hours, and then lysed and immunoblotted with antibodies to FGFR1 (cell signaling), CDK9, and β-Actin.
JHH7 cells were treated with 0, 0.1, 1, or 10 M of bispecific compound 6 or 0.5 M THAL-SNS-032 for 16 hours, and then lysed and immunoblotted with antibodies to FGFR3 (cell signaling), FGFR4 (cell signaling), CDK9, and β-Actin.

For a further experiment, the system named is FGFR2. Description: Rescue of degrader-induced FGFR2 degradation by pretreatment, immunoblot in Kato III cells. The class given is cell-based. Conditions: for rescue of FGFR2 degradation induced by bispecific compound 6: pretreated 2 h (10 μM BGJ398, 10 μM control-1, 0.5 M Bortezomib, 1 μM MLN4924), then 0.1 M bispecific compound 6 for 4 h; for rescue of FGFR2 degradation induced by bispecific compound 20: pretreated 2 h (10 μM FIIN2, 10 M control-1, 0.5 M Bortezomib, 1 μM MLN4924), then 1 M bispecific compound 20 for 4 h. The protocol:
Kato III cells were pretreated with 10 μM BGJ398 (the parental compound and known FGFR1/2/3 inhibitor; available from, e.g., MedChemExpress®, Cat. No. HY-13311, Monmouth Junction, N.J.), 10 μM control-1 (VHL ligand), 0.5 M Bortezomib (a proteasome inhibitor; available from, e.g., Millipore Sigma®, Cat. No. 179324-69-7, Burlington, Mass.), and 1 μM MLN4924 (a neddylation inhibitor; available from, e.g., MedChemExpress®, Cat. No. HY-70062, Monmouth Junction, N.J.), for 2 h, and then treated with 0.1 M bispecific compound 6 for 4 h. Cells were lysed and immunoblotted as described above with antibodies to FGFR2 and β-Actin.
Kato III cells were pretreated with 10 μM FIIN2 (the parental compound and known FGFR1/2/3/4 inhibitor; available from, e.g., Selleckchem, Cat. No. S7714, Houston, Tex.), 10 M control-1 (VHL ligand), 0.5 M Bortezomib (a proteasome inhibitor; available from, e.g., Millipore Sigma, Cat. No. 179324-69-7, Burlington, Mass.), and 1 μM MLN4924 (a neddylation inhibitor; available from, e.g., MedChemExpress, Cat. No. HY-70062, Monmouth Junction, N.J.), for 2 h, and then treated with 1 M bispecific compound 20 for 4 h. Cells were lysed and immunoblotted as described above with antibodies to FGFR2 and β-Actin.
Background: In western blotting, separated proteins are transferred to a membrane and probed.

The subject of a further experiment is Kato III cells. Kind of experiment: cells. As to conditions: 72 h. As for the experimental part:
Kato III cells were treated with bispecific compound 6 or BGJ398 at the indicated concentrations for 72 h. Cell viability was determined using Cell-Titer Glo (Promega™) according to the manufacturer's instructions. IC50 values (defined as the concentration of compound needed to reduce cell viability to 50% of the vehicle DMSO control) were estimated by using GraphPad Prism 7.0 (GraphPad Prism®).
Cell viability was determined using Cell-Titer Glo (Promega™) according to the manufacturer's instructions. IC50 values were estimated by using GraphPad Prism 7.0 (GraphPad Prism®).
Kato III cells were treated with bispecific compound 6, bispecific compound 7 or BGJ398 at the indicated concentrations for 72 h. Cell viability was determined using Cell-Titer Glo (Promega™), according to the manufacturer's instructions. IC50 values (defined as the concentration of compound needed to reduce cell viability to 50% of the vehicle DMSO control) were estimated by using GraphPad Prism 7.0 (GraphPad Prism®).

The test system of experiment [1] is FGFR alteration (fusions, amplifications, or point mutations). As to conditions: cited from earlier work.
The mark [2] stands for this setting: patients with advanced refractory ICC with an FGFR alteration.

The structures appear in SMILES notation. Read-outs that look alike come from different tables or passages of the source.

T1 sequence (P50750 whole entry): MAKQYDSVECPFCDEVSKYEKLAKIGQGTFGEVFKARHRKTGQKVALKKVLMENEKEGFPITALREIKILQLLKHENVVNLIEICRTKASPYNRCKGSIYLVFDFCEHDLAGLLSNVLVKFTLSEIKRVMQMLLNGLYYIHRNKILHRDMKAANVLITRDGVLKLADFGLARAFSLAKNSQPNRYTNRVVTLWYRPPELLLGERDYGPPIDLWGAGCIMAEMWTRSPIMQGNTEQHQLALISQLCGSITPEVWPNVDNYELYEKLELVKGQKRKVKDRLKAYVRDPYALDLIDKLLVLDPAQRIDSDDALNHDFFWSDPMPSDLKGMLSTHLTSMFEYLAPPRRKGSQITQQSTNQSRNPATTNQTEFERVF
T1 sequence (O60563 whole entry partner): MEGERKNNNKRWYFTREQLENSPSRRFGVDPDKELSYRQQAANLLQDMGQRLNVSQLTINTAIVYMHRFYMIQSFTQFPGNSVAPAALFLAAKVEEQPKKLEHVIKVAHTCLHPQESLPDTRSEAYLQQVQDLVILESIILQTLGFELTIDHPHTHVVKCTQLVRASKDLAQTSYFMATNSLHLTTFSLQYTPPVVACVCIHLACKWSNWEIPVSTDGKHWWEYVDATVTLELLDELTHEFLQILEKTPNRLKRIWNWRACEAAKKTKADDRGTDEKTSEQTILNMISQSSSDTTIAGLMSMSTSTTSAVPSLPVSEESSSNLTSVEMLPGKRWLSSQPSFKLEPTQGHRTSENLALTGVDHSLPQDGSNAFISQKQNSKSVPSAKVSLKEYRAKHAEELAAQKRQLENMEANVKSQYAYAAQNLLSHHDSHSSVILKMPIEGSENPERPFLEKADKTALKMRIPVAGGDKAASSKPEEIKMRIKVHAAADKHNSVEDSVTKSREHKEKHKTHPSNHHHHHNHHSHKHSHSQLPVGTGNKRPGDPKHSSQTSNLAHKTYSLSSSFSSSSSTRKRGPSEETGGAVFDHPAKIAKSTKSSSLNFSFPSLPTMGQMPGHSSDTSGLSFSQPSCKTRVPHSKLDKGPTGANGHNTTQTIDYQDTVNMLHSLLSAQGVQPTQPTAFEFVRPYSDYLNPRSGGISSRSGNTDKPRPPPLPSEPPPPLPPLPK

As for `CC(C)(C)c1cnc(CSc2cnc(NC(=O)C3CCN(CC(=O)NCCOCCOCCOCCNc4cccc5c4C(=O)N(C4CCC(=O)NC4=O)C5=O)CC3)s2)o1` (stereo not drawn) [THAL-SNS-032], the CDK9 degradation result is reported as “induced CDK9 degradation” on CDK9 (CCLP1 cells, 0.5 μM); “induces CDK9 degradation” on CDK9 (JHH7 cells, 0.5 µM); “induced CDK9 degradation” on CDK9 (Kato III cells, 0.5 µM).

Take `CCN1CCN(c2ccc(Nc3cc(N(C)C(=O)Nc4c(Cl)c(OC)cc(OC)c4Cl)ncn3)cc2)CC1` [BGJ398]: the “rescue of FGFR2 degradation induced by bispecific compound 6” value (“rescue … by bispecific compound 6” below) in the experiment with FGFR2 is reported as “rescued the FGFR2 degradation”. For the same molecule, the IC50 in the experiment on Kato III cells (Homo sapiens, KATO III, read-out: IC50 (concentration needed to reduce cell viability to 50% of the vehicle DMSO control)) is around 1 nM. Besides, the anti-proliferation effect result in the experiment with Kato III cells (Kato III cells) was “good anti-proliferation effect”. For the same molecule, in experiment [1] (FGFR2 fusions only), the “disease control rate (DCR; partial responses+stable disease)” value is 83.3% and the “overall response rate (ORR)” value is 18.8%. Also, in experiment [1] (setting [2]), the “Median progression free survival” value is 5,8 months, the “disease control rate (DCR; partial responses+stable disease)” value was 75.4% and the “overall response rate (ORR)” value is recorded as 14.8%.

On to `CC(=O)N[C@H](C(=O)N1C[C@H](O)C[C@H]1C(=O)N[C@@H](C)c1ccc(-c2scnc2C)cc1)C(C)(C)C` [control-1], for which, in the experiment with FGFR2, the “rescue … by bispecific compound 6” value is reported as “rescued the FGFR2 degradation” and the “rescue of FGFR2 degradation induced by bispecific compound 20” value (shortened to “rescue … by bispecific compound 20”) is listed as “rescued the FGFR2 degradation”.

For the molecule `CC(C)C[C@H](NC(=O)[C@H](Cc1ccccc1)NC(=O)c1cnccn1)B(O)O` [Bortezomib], in the experiment on FGFR2, the “rescue … by bispecific compound 6” value is recorded as “rescued the FGFR2 degradation” and the “rescue … by bispecific compound 20” value is given as “rescued the FGFR2 degradation”.

As for `C=CC(=O)Nc1ccc(CN2C(=O)N(c3cc(OC)cc(OC)c3)Cc3cnc(Nc4ccc(N5CCN(C)CC5)cc4)nc32)cc1` [FIIN2], the “rescue … by bispecific compound 20” value with FGFR2 is on record as “rescued the FGFR2 degradation”.

As to `NS(=O)(=O)OC[C@@H]1C[C@@H](n2ccc3c(N[C@H]4CCc5ccccc54)ncnc32)C[C@@H]1O` [MLN4924], in the experiment with FGFR2, the “rescue … by bispecific compound 6” value is “rescued the FGFR2 degradation” and the “rescue … by bispecific compound 20” value is “rescued the FGFR2 degradation”.

Source of the values: patent US20220175722A1, “DEGRADERS OF FIBROBLAST GROWTH FACTOR RECEPTOR 2 (FGFR2)” (DANA-FARBER CANCER INSTITUTE, INC., priority 2019, published 2022).
